According to PubChem BioAssay AID504563 (Southern Research Specialized Biocontainment Screening …, 2011):

Tested on: HIV-1 CXCR4-tropic in human PBMC, supernatant RT activity
Assay: antiviral activity, X4 HIV-1 in human PBMC – cell-based, set 2, dose response (AID 504563)

Cc1c2c(=O)n(-c3nc4ccccc4s3)nc-2cc(O)n1Cc1ccccc1Cl
IC50: 7.26 µM

Cc1c2c(=O)n(-c3nc4ccccc4s3)nc-2cc(O)n1Cc1cccnc1
IC50: 1.51 µM

Cc1c2c(=O)n(-c3nc4ccccc4s3)nc-2cc(O)n1CCC(C)C
IC50: 5.25 µM

Cc1c2c(=O)n(-c3nc4ccccc4s3)nc-2cc(O)n1Cc1ccc(F)cc1
IC50: 3.98 µM

Cc1c2c(=O)n(-c3nc4ccccc4s3)nc-2cc(O)n1Cc1ccccc1
IC50: 3.21 µM

COc1ccc(Cn2c(O)cc3nn(-c4nc5ccccc5s4)c(=O)c-3c2C)cc1
IC50: 2.86 µM

Cc1c2c(=O)n(-c3nc4ccccc4s3)nc-2cc(O)n1Cc1cccs1
IC50: 1.83 µM

Cc1c2c(=O)n(-c3nc4ccccc4s3)nc-2cc(O)n1C1CC1
IC50: 0.76 µM

Cc1c2c(=O)n(-c3nc4ccccc4s3)nc-2cc(O)n1Cc1ccncc1
IC50: 1.99 µM

COc1ccccc1Cn1c(O)cc2nn(-c3nc4ccccc4s3)c(=O)c-2c1C
IC50: 5.55 µM

Cc1c2c(=O)n(-c3nc4ccccc4s3)nc-2cc(O)n1CCc1ccc(O)cc1
IC50: 1.85 µM

COc1ccc(CCn2c(O)cc3nn(-c4nc5ccccc5s4)c(=O)c-3c2C)cc1
IC50: 12.6 µM

Cc1c2c(=O)n(-c3nc4ccccc4s3)nc-2cc(O)n1CCc1cccs1
IC50: 3.77 µM
